Assay results published in US8063039B2, “3-aminopyrrolidone derivatives” (Newron Pharmaceuticals S.p.A., priority 2003, dated 2011).
Structures can show the parent of a compound that is named as a salt.

O=C1NCC[C@@H]1NCc1ccc(OCc2cccc(F)c2)cc1 (as salt: sulfonic acid salt) [Example 1, (S)-3-[4-(3-Fluorobenzyloxy)-benzylamino]-pyrrolidin-2-one]
melting point: 140.5 to 143.5 °C
